Source: PMC11310889, “Ribosomal translation of fluorinated non-canonical amino acids for de novo biologically active fluorinated macrocyclic peptides” (Chemical Science, 2024)

Key:
Format in all cases: cell-based, Escherichia coli
E. coli W3110 [1] = assay: Propidium iodide (PI) assay of membrane permeability; details: E. coli W3110 logarithmic-phase, 15 min treatment with 5 μM peptide, PI 25 μg/mL 15 min (Fig. 5A)
Protocol: Propidium Iodide (PI) assay
Thaw the previously preserved E. coli W3110 cells from the -80 °C freezer. Scrape a small amount and inoculate it into 1 mL of LB liquid medium. Culture overnight in a 37°C shaker. Next day, inoculate the strain into fresh LB liquid medium at a 1:100 ratio and incubate at 37 °C until the OD600 reaches approximately 0.47 to 0.53. Take 100 μL of the E. coli W3110 cells and centrifuge for 2 min at 13,000 rpm. Discard the supernatant. For the untreated group, resuspend the cells in 100 μL of PBS. For the peptide treatment group, resuspend the cells in 99 μL of ddH2O and add 1 […]
μL of 0.5 mM of the different peptides. Mix thoroughly and let react for 15 min. After the treatment, take 80 μL of each sample and incubate with PI at a final concentration of 25 μg/mL for 15 min.
After incubation, wash the samples with the same amount of PBS, centrifuge, and resuspend at a 10-fold concentration. Observe the images using a Nikon Eclipse Ci-L Plus microscope. […]
(§1) Incubate overnight in a 37°C shaker. […]
Centrifuge again at
6100g for 10 min, discard the supernatant, and add 500 μL of ddH2O containing 2.5% glutaraldehyde. Resuspend and fix the cells overnight at 4°C. Centrifuge at 6100g for 10 min, remove the supernatant, and wash twice with ddH2O, letting it stand for 15 min each time, followed by centrifugation at 6100g for 10 min. Discard the supernatant. Dehydrate the sample with ethanol at concentration gradients of 30%, 60%, and 90%, without resuspension, centrifuging at 6100g for […]

E. coli W3110 [2] = assay: Protein leakage assay; details: E. coli W3110, 5 μM peptide, 15 min, pellet analysed by SDS-PAGE, compared to R9-treated sample (Fig. S10)
Protocol: Thaw the previously preserved E. coli W3110 cells from the -80 °C freezer. Scrape a small amount and inoculate it into 1 mL of LB liquid medium. Incubate overnight in a 37°C shaker. Next day, transfer the culture to fresh LB liquid medium at a 1:100 inoculation ratio and incubate at 37 °C until the OD600 reaches approximately 0.47 to 0.53. Collect 300 μL of the E. coli W3110 cells and centrifuge for 2 min at 13,000 rpm, discarding the supernatant afterward. Resuspend the untreated group in 300 μL of PBS, and the peptide treatment group in 297 μL of ddH2O. Add 3 μL of 0.5 mM different peptides to the treatment group, mix well, and allow to react for 15 min. After the treatment, resuspend all samples in 15 μL of 6×SDS loading buffer and 15 μL of 10% SDS. All samples were heated at 99.9°C for 15 min, followed by 10% SDS-PAGE analysis and staining with Coomassie brilliant blue R250. […]
as §1

E. coli W3110 [3] = assay: Scanning electron microscopy of cell morphology; details: E. coli W3110 logarithmic-phase, 4 h treatment at 2 μM and 5 μM (Fig. 5B, S11)
Protocol: Thaw the previously preserved E. coli W3110 cells from the -80 °C freezer. […]
Scanning electron microscopy
Thaw the previously preserved E. coli W3110 cells from the -80°C freezer. Scrape a small amount and inoculate it into 1 mL of LB liquid medium. Incubate overnight in a 37°C shaker. The next day, inoculate the strain into fresh LB liquid medium at a 1:100 ratio and incubate at 37°C until the OD600 reaches approximately 0.47 to 0.53. Take 500 μL of E. coli W3110 cells, centrifuge for 10 min at 4000 rpm, and discard the supernatant. Resuspend the cells in 500 μL of PBS, then centrifuge again at 4000 rpm for 10 min and discard the supernatant. Dissolve various macrocyclic peptides in DMSO and dilute to the required concentration. Resuspend the untreated group in 500 μL of PBS.
For the peptide treatment group, resuspend in 495 μL of ddH2O, add 5 μL of 0.2 mM or 0.5 mM peptides, mix well, and let react for 4 h.
After the treament, spot 4 μL of the sample on plates. Perform the first ten-fold dilution and mix, then continue with the second to fifth ten-fold dilutions. Incubate the plates inverted overnight in a 37°C incubator. Scan and count the colonies. For the remaining 492 μL, centrifuge at 6100g for 10 min, discard the supernatant, add 500 μL of ddH2O, and let it stand for 15 min. Centrifuge again at 6100g for 10 min, discard the supernatant, and add 500 μL of ddH2O containing 2.5% glutaraldehyde. Resuspend and fix the cells overnight at 4°C. Centrifuge at 6100g for 10 min, remove the supernatant, and wash twice with ddH2O, letting it stand for 15 min each time, followed by centrifugation at 6100g for 10 min. Discard the supernatant. Dehydrate the sample with ethanol at concentration gradients of 30%, 60%, and 90%, without resuspension, centrifuging at 6100g for […]
10 min and discarding the supernatant after each step. Finally, use 100% ethanol, rest for 15 min, centrifuge at 6100g for 10 min, discard the supernatant, and repeat with 100% ethanol, leaving about 10 μL. Then the critical point was dried and sprayed with gold, and the images were observed by […]
Prediction of binding sites between peptides and the BAM complex
Firstly, the fpocket algorithm was used, a rapid method for pocket prediction based on the three-dimensional structure of BAM complex (PDB ID: 5AYW). This method establishes a grid surrounding the protein, positioning alpha spheres on grid points devoid of spatial conflicts with protein atoms, subsequently utilizing a clustering algorithm to ascertain whether these regions constitute potential binding pockets. Alpha spheres were designated with radii ranging from 3.4Å to 6.2Å, with a prerequisite of at least 15 alpha spheres for a region to be considered a pocket. […]
PepNN evaluated each amino acid for its potentiality as a peptide binding site. […]

## Ac-DYLIWYSRSHPFRVCGS(Acp)RRRRRRRRR-NH2 (sidechain bridge or staple) [BAM-D1-R9, BAM-D1 conjugated with cell-penetrating peptide R9]
E. coli W3110 [1]
  PI red fluorescence (cell membrane permeability): notable red fluorescence intensity
E. coli W3110 [2]
  cellular protein leakage: partial cellular protein leakage
E. coli W3110 [3]
  morphological changes by scanning electron microscopy: severe damage in the cell shape and even lysis
